Where two headings read alike, the source gives them in different places.
Experiments:
Format in all cases: cell-based
[1] = test system: Streptococcus mutans KCTC 3065; experiment: Agar diffusion antibacterial test (aerobic); details: S. mutans
[2] = test system: Pseudomonas aeruginosa KCTC 1637; experiment: Agar diffusion antibacterial test (aerobic); details: P. aeruginosa
[3] = test system: Listeria monocytogenes KCTC 3569; experiment: Agar diffusion antibacterial test (aerobic); details: L. monocytogenes
[4] = test system: Salmonella enteritidis KCTC 12400; experiment: Agar diffusion antibacterial test (aerobic); details: S. enteritidis
[5] = test system: Shigella flexneri KCTC 2517; experiment: Agar diffusion antibacterial test (aerobic); details: S. flexneri
[6] = test system: Bordetella bronchiseptica KCCM 21998; experiment: Agar diffusion antibacterial test (aerobic); details: B. bronchiseptica
[7] = test system: Aeromonas salmonicida KCTC 12266; experiment: Agar diffusion antibacterial test (aerobic); details: A. salmonicida
[8] = test system: Neisseria meningitidis KCCM 41562; experiment: Agar diffusion antibacterial test (aerobic); details: N. meningitidis
[9] = test system: Actiinobacillus ureae KCTC 2674; experiment: Agar diffusion antibacterial test (aerobic); details: A. ureae
[10] = test system: Clostridium perfringens KCCM 12098; details: C. perfringens
[11] = test system: Clostridium dificile KCCM 12115; experiment: Agar diffusion antibacterial test (anaerobic); details: C. difficile
[12] = test system: Bacteroides fragilis KCTC 3688; experiment: Agar diffusion antibacterial test (anaerobic); details: B. fragilis
[13] = test system: Listeria monocytogenes KCTC 3569; experiment: MIC by broth dilution method; details: L. monocytogenes, 37° C., 24 hours
[14] = test system: Shigella flexneri KCTC 2517; experiment: MIC by broth dilution method; details: S. flexneri, 37° C., 24 hours
[15] = test system: Yersinia enterocolitica KCCM 41657; experiment: MIC by broth dilution method; details: Y. enterocolitica, 37° C., 24 hours
[16] = test system: Neisseria meningitidis KCCM 41562; experiment: MIC by broth dilution method; details: N. meningitidis, 37° C., 24 hours
[17] = test system: Moraxella catarrhalis KCCM 40056; experiment: MIC by broth dilution method; details: M. catarrhalis, 37° C., 24 hours
[18] = test system: Clostridium dificile KCCM 12115; experiment: MIC by broth dilution method; details: C. difficile, 37° C., 24 hours
[19] = test system: Corynebacterium glutamicum KCTC 1445; experiment: MIC by broth dilution method; details: C. glutamicum, 37° C., 24 hours
[20] = test system: 8 anaerobic bacterial species; experiment: Agar diffusion antibacterial test, overall (anaerobic); details: 8 anaerobic bacterial spp, agar diffusion

`C=C1C(=O)OC[C@H]1O` [S-(−)-tulipalin B, (4S)-4-hydroxy-3-methylene-oxolan-2-one] showed an Inhibitory zone diameter ([1]; treatment concentration 0.1%) of 11 mm, an Inhibitory zone diameter ([1]; treatment concentration 0.3%) of 13 mm and an Inhibitory zone diameter ([1]; treatment concentration 1.0%) of 16 mm. It also gave an Inhibitory zone diameter ([2]; treatment concentration 0.3%) of 12 mm, an Inhibitory zone diameter ([2]; treatment concentration 1.0%) of 14 mm and an Inhibitory zone diameter ([3]; treatment concentration 0.1%) of 11 mm. For the same compound, the Inhibitory zone diameter ([3]; treatment concentration 0.3%) was 13 mm, the Inhibitory zone diameter ([3]; treatment concentration 1.0%) was 16 mm and the Inhibitory zone diameter ([4]; treatment concentration 0.03%) was 11 mm. For the same compound, the Inhibitory zone diameter ([4]; treatment concentration 0.1%) was 13 mm, the Inhibitory zone diameter ([4]; treatment concentration 0.3%) was 16.5 mm and the Inhibitory zone diameter ([4]; treatment concentration 1.0%) was 20 mm. For the same compound, the Inhibitory zone diameter ([5]; treatment concentration 0.03%) was 10.5 mm, the Inhibitory zone diameter ([5]; treatment concentration 0.1%) was 13 mm and the Inhibitory zone diameter ([5]; treatment concentration 0.3%) was 18 mm. For the same compound, the Inhibitory zone diameter ([5]; treatment concentration 1.0%) was 19 mm, the Inhibitory zone diameter ([6]; treatment concentration 0.03%) was 12 mm and the Inhibitory zone diameter ([6]; treatment concentration 0.1%) was 14 mm. It also gave an Inhibitory zone diameter ([6]; treatment concentration 0.3%) of 18 mm, an Inhibitory zone diameter ([6]; treatment concentration 1.0%) of 20 mm and an Inhibitory zone diameter ([7]; treatment concentration 0.01%) of 11 mm. The Inhibitory zone diameter ([7]; treatment concentration 0.03%) was 12 mm, the Inhibitory zone diameter ([7]; treatment concentration 0.1%) was 13 mm and the Inhibitory zone diameter ([7]; treatment concentration 0.3%) was 17 mm. The Inhibitory zone diameter ([7]; treatment concentration 1.0%) was 19 mm, the Inhibitory zone diameter ([8]; treatment concentration 0.03%) was 11 mm and the Inhibitory zone diameter ([8]; treatment concentration 0.1%) was 12 mm. It also gave an Inhibitory zone diameter ([8]; treatment concentration 0.3%) of 16 mm, an Inhibitory zone diameter ([8]; treatment concentration 1.0%) of 18 mm and an Inhibitory zone diameter ([9]; treatment concentration 0.03%) of 11 mm. For the same compound, the Inhibitory zone diameter ([9]; treatment concentration 0.1%) was 12 mm, the Inhibitory zone diameter ([9]; treatment concentration 0.3%) was 17 mm and the Inhibitory zone diameter ([9]; treatment concentration 1.0%) was 19 mm. For the same compound, the Inhibitory zone diameter ([10]; treatment concentration 0.1%) was 11 mm, the Inhibitory zone diameter ([10]; treatment concentration 0.3%) was 13 mm and the Inhibitory zone diameter ([10]; treatment concentration 1.0%) was 14 mm. For the same compound, the Inhibitory zone diameter ([11]; treatment concentration 0.1%) was 10.5 mm, the Inhibitory zone diameter ([11]; treatment concentration 0.3%) was 13 mm and the Inhibitory zone diameter ([11]; treatment concentration 1.0%) was 13 mm. For the same compound, the Inhibitory zone diameter ([12]; treatment concentration 0.01%) was 10.5 mm, the Inhibitory zone diameter ([12]; treatment concentration 0.03%) was 12 mm and the Inhibitory zone diameter ([12]; treatment concentration 0.1%) was 14 mm. It also gave an Inhibitory zone diameter ([12]; treatment concentration 0.3%) of 16 mm, an Inhibitory zone diameter ([12]; treatment concentration 1.0%) of 18 mm and an MIC [13] of 0.10%. The MIC [14] was 0.025%, the MIC [15] was 0.015% and the MIC [16] was 0.01%. It also gave an MIC [17] of 0.03%, an MIC [18] of 0.10% and an MIC [19] of 0.10%. The Antibacterial effects [20] was “relatively high antibacterial effects”.
